# Measured values reported in publication PMC12040169 (PLOS Biology, 2025).
# Assay: in vitro
# Settings: human, hela cells, % viability
row,Structure (SMILES),"viability at 28.5 h, 10 µM"
1,NC(=O)COc1ccccc1O [CBK261029],111%
2,O=C(O)c1cccc(-c2cncc(NCCCN3CCOCC3)n2)c1 [CBK037850],104%
3,OCCCN1CCC(Oc2cncc(OCc3cccnc3)n2)C1 (stereo not shown) [CBK084465],91.7%
4,O=C(O)C1CCCCC1C(=O)Nc1ccc(S(=O)(=O)N2CCOCC2)cc1 (stereo not shown) [CBK268010],104%
5,Cc1nn(CC(=O)N(C)CCCc2nccn2C)c(=O)c2ccccc12 [CBK307087],92.2%
6,CCCn1cc(C(CC(=O)O)C(=O)O)c2ccccc21 (stereo not shown) [CBK267345],92.4%
7,COc1ccc(-c2cc(C(=O)Nc3ccccn3)cnc2-c2ccccc2)cn1 [CBK037519],89.3%
8,O=C(Nc1ccc2n(c1=O)C[C@H]1C[C@@H]2CN(C(=O)Cc2cccs2)C1)c1ccccc1 [CBK288709],82.4%
9,COc1cccc(C(=O)NCCC(=O)N2CCCC(c3ncc[nH]3)C2)c1 (stereo not shown) [CBK306864],82.5%
10,COc1cc(CNCc2ccc(F)cc2)cc(Cl)c1OCC(N)=O [CBK270256C],89%
11,Cc1cc(=O)oc2cc(OCc3ccc(S(=O)(=O)N4CCOCC4)cc3)ccc12 [CBK267402],91.3%
12,COc1ccc2cc(C#N)c(SCC(=O)Nc3ccc(F)cc3)nc2c1 [CBK068765],85.7%
13,COc1ccc(S(=O)(=O)N2CCN(C(=O)COc3ccc4ccccc4c3)CC2)cc1 [CBK263371],91.5%
14,CCCc1[nH]nc(O)c1Cc1ccccc1-c1ccccc1 [CBK075034],97.2%
15,Oc1cccc(Sc2nccc(C(F)(F)F)n2)c1 [CBK093801],96.6%
16,Cc1ccc(-c2nccnc2OCc2ccco2)cc1C [CBK106863],90.2%
17,N=C(SC1CC(=O)N(c2ccc(C(=O)O)cc2)C1=O)N1N=C(c2ccccc2)CC1c1ccccc1 (stereo not shown) [CBK262446],90.9%
18,CCC(CO)Nc1nccnc1-c1cccc(F)c1 (stereo not shown) [CBK036775],108%
19,CCc1nc(CNC(=O)c2cc3cc(F)ccc3n2C)no1 [CBK281414],93.6%
20,O=C(CO)N1CC2(CCN(Cc3cccc4cccnc34)CC2)c2ccccc21 [CBK137004],104%
21,Cc1cc2ccccc2n2c(SCCC(=O)Nc3ccc(C(C)(C)C)cc3)nnc12 [CBK265639],106%

row,Structure (SMILES),"viability at 28.5 h, 10 µM"
1,N#CCCCN1CCCN(c2nccc(OCC3COc4ccccc4O3)n2)CC1 (stereo not shown) [CBK083977],90.2%
2,COC(=O)CN1C(=O)S/C(=C/c2cc(C)n(-c3ccc(S(N)(=O)=O)cc3)c2C)C1=O [CBK265249],95.9%
3,O=C(COc1ccc(Cl)cc1Cl)NC(Cc1ccccc1)C(=O)O (stereo not shown) [CBK261061],102%
4,CCOc1n[s+]([O-])nc1Nc1cc(Cl)cc(Cl)c1 (stereo not shown) [CBK007897],101%
5,CC(C)(C)NS(=O)(=O)c1ccc(OCC(=O)O)cc1 [CBK287077],100%
6,COc1cc(CN2CCc3c([nH]c4ccccc34)C2)c([N+](=O)[O-])cc1OC [CBK261588],90.6%
7,Cn1ncc(Cl)c1C1CCCCCN1C(=O)c1cccnc1 (stereo not shown) [CBK285146],108%
8,O=C(c1ccc2[nH]c(=O)[nH]c2c1)N1CCC2(CCNC2)C1 (stereo not shown) [CBK156747C],101%
9,O=C(O)CSc1ccccc1[N+](=O)[O-] [CBK111324],86.8%
10,CC(C)(C)c1ccc(S(=O)(=O)N2CCCC[C@H]2CCOC(=O)c2ncccc2C(=O)O)cc1 [CBK200066],98.7%
11,CC1CC1C(=O)N1C2CCC1CC(O)(Cn1ccc3ccncc31)C2 (stereo not shown) [CBK284653],85.6%
12,COc1ccc(CC(=O)N2CCCC(c3nc(C)c4c(n3)N(CC3CC3)CCC4)C2)cc1 (stereo not shown) [CBK286228],100%
13,N#CCCCN1CCC(Oc2nccnc2OCc2ccc(Cl)cc2Cl)CC1 [CBK161568],94.4%
14,CCN(CC)Cc1nccn1-c1ccc([N+](=O)[O-])cc1C(=O)c1ccccc1Cl [CBK011562F],105%
15,Cc1cc(C)n(CC(O)CN(Cc2ccccc2)Cc2ccco2)n1 (stereo not shown) [CBK282957],95.7%
16,COc1ccc(S(=O)(=O)n2ccc3cc(N4CCN(C)CC4)ccc32)cc1OC [CBK000286C],79.6%
17,O=S(=O)(c1ccc2ccccc2c1)N1CCN(C2CCC(c3ccccc3)CC2)CC1 (stereo not shown) [CBK264152],103%
18,O=C(C1=C(O)C(=O)N(CCCN2CCOCC2)C1c1cccs1)c1cccs1 (stereo not shown) [CBK264533],111%
19,Cn1c(=O)n(C)c2cc(S(=O)(=O)Nc3ccc(Cl)c(C(=O)O)c3)ccc21 [CBK299841],90.8%
20,Cc1ccc(CNCCn2nnc(-c3ccc(CN4CCC(C)CC4)cc3)n2)cc1 [CBK154882T],93.3%
21,COc1cc2c(cc1OC)CN(Cc1nc3ccccc3[nH]1)CC2 [CBK126390],91%

row,Structure (SMILES),"viability at 28.5 h, 10 µM"
1,CC(C)(C)OC(=O)NC(C)(C)C(=O)N1CC(C(=O)O)C(c2cc3ccccc3o2)C1 (stereo not shown) [CBK003236],88%
2,Cn1cncc1CN(CCc1ccccc1)Cc1ccncc1 [CBK282992],87.4%
3,O=C1N=C2C=CC=CN2C(=O)C1Cc1ccccc1 (stereo not shown) [CBK287874],110%
4,CC(=O)N1CCc2cc(-c3cc4cc(C)ccn4c3)ccc21 [CBK285228],75.2%
5,O=C(O)c1ccc(CNC(=O)c2cnc(-c3ccc(F)cc3)c(-c3ccc(O)cc3)c2)cc1 [CBK037996],101%
6,Cn1c(=N)n(CC(=O)O)c2ccccc21 [CBK262926B],90.4%
7,CCNS(=O)(=O)c1ccc(Cn2nc(NC(=O)C3COc4ccccc4O3)c3ccccc32)cc1 (stereo not shown) [CBK061613],109%
8,COc1ccc(OC)c([C@@H]2CN(Cc3ccccc3)C[C@H]2NC(=O)c2ccco2)c1 [CBK286479],96.3%
9,CCOC(=O)CNS(=O)(=O)c1ccc(Cl)c(Cl)c1Cl [CBK034428],92%
10,O=C1NCC2(CCCN(C(=O)c3cccs3)C2)Oc2ccccc21 (stereo not shown) [CBK284900],102%
11,Cc1cccc(-c2nnc(-c3cccc(NC(=O)COc4ccccc4)c3)o2)c1 [CBK269659],95.8%
12,O=C(NCc1ccc(Cl)c(Cl)c1)C1(c2ccccc2)CCCC1 [CBK149528],92.8%
13,O=C(C1=C(O)C(=O)N(CCN2CCOCC2)C1c1cccc(Br)c1)c1ccco1 (stereo not shown) [CBK264490],94.4%
14,Cc1nc(C(C)NC(=O)CCc2cnn(C)c2)c(C)s1 (stereo not shown) [CBK307064],92.6%
15,O=C1CSC(=O)N1CNc1ccc(Br)cc1 [CBK261819],90.2%
16,O=C(Nc1ccccc1-c1nc2ccccc2s1)c1cc(Br)ccc1Cl [CBK266280],94.9%
17,COc1ccccc1NC(=O)NCCC1SC(NC2CCCCCC2)=NC1=O (stereo not shown) [CBK067473],91.8%
18,Cc1cc(O)nc(SCCOCCSc2ccc(Cl)cc2)n1 [CBK267372],94%
19,CNC(=O)CN(C)Cc1c(C(=O)N2CCOCC2)nc2c(C)cccn12 [CBK307128],114%
20,COCCOC1CN(Cc2cn(-c3ccc(Br)cc3)nc2C(C)C)C1 [CBK304852],87.7%
21,O=C1CCC(=O)N1CC(O)Cn1c2ccc(Cl)cc2c2cc(Cl)ccc21 (stereo not shown) [CBK262222],90.5%

# Same assay, conditions: human, hela cells, % viability, bulk resorufin, single well
row,Structure (SMILES),"viability at 28.5 h, 10 µM"
1,COc1cc(C2OCCNC2C)c(OC)cc1C (stereo not shown) [CBK010347C],90.7%
